According to paper PMC11620503 (Antimicrobial Agents and Chemotherapy, 2024):
Converted amounts (≈) assume the structure as drawn. Like-named read-outs stand apart in the source and are kept apart here.

Legend:
[1] = system: E. coli CDC-119 (NDM-1), PBP3 mutations; test: MIC, broth microdilution; format: cell-based; conditions: Escherichia coli
[2] = system: E. coli CDC-151 (NDM-5), PBP3 mutations; test: MIC, broth microdilution; format: cell-based; conditions: Escherichia coli, fixed BLI concentration (μg/mL) in parentheses in label
[3] = system: MBL-producing isolates (Enterobacterales); test: MIC, broth microdilution; format: cell-based; conditions: for MIC90: read-out: MIC90
[4] = system: E. coli CDC-435 (NDM-1), PBP3 mutations; test: MIC, broth microdilution; format: cell-based; conditions: Escherichia coli, fixed BLI concentration (μg/mL) in parentheses in label
96 P. aeruginosa = test: MIC, broth microdilution; format: cell-based, Pseudomonas aeruginosa; conditions: Pseudomonas aeruginosa (96)
[5] = system: MEM-nonsusceptible Enterobacterales; test: MIC, broth microdilution; format: cell-based; conditions: MEM-nonsusceptible Enterobacterales (127), cefiderocol 126 isolates
[6] = system: E. coli CDC-149 (NDM-7), PBP3 mutations; test: MIC, broth microdilution; format: cell-based; conditions: Escherichia coli
[7] = system: MEM-nonsusceptible Enterobacterales with serine-carbapenemases; test: MIC, broth microdilution; format: cell-based; conditions: MEM-nonsusceptible Enterobacterales with serine-carbapenemases (58)
[8] = system: E. coli CDC-162 (NDM-7), PBP3 mutations; test: MIC, broth microdilution; format: cell-based; conditions: Escherichia coli
[9] = system: MEM-nonsusceptible Enterobacterales with metallo-carbapenemases; test: MIC, broth microdilution; format: cell-based; conditions: MEM-nonsusceptible Enterobacterales with metallo-carbapenemases (55), cefiderocol 54 isolates
[10] = system: 207 Enterobacterales including carbapenem-resistant isolates; test: MIC, broth microdilution; format: cell-based
[11] = system: Klebsiella aerogenes NCTC 10006 (ATCC 13048); test: MIC, reference strains of aerobic bacteria; format: cell-based
[12] = system: Acinetobacter baumannii ATCC 19606; test: MIC, reference strains of aerobic bacteria; format: cell-based; conditions: ATCC19606
[13] = system: Proteus mirabilis NBRC 3849 (NCTC 6197); test: MIC, reference strains of aerobic bacteria; format: cell-based
[14] = system: Acinetobacter calcoaceticus NBRC12552 (ATCC 14987); test: MIC, reference strains of aerobic bacteria; format: cell-based
[15] = system: Staphylococcus lugdunensis KUB4804; test: MIC, reference strains of aerobic bacteria; format: cell-based
[16] = system: Staphylococcus saprophyticus KUB4845; test: MIC, reference strains of aerobic bacteria; format: cell-based
[17] = system: Staphylococcus epidermidis KUB4862/methicillin-resistant; test: MIC, reference strains of aerobic bacteria; format: cell-based
[18] = system: Streptococcus porcinus ATCC 12391; test: MIC, reference strains of aerobic bacteria; format: cell-based; conditions: ATCC12391
[19] = cited from earlier work
[20] = system: Enterobacter cloacae NBRC 13535 (ATCC 13047); test: MIC, reference strains of aerobic bacteria; format: cell-based
[21] = system: Enterococcus faecium NCTC 12204; test: MIC, reference strains of aerobic bacteria; format: cell-based; conditions: NCTC12204
[22] = system: Staphylococcus aureus KUB4690/methicillin-resistant; test: MIC, reference strains of aerobic bacteria; format: cell-based
[23] = system: Streptococcus mitis GTC495 (ATCC 49456); test: MIC, reference strains of aerobic bacteria; format: cell-based; conditions: ATCC49456
[24] = system: Moraxella catarrhalis ATCC 25238; test: MIC, reference strains of aerobic bacteria; format: cell-based; conditions: ATCC25238
[25] = system: Stenotrophomonas maltophilia KUB3619; test: MIC, reference strains of aerobic bacteria; format: cell-based
[26] = system: Streptococcus pneumoniae ATCC 49619; test: MIC, reference strains of aerobic bacteria; format: cell-based; conditions: ATCC49619
[27] = system: Klebsiella oxytoca KUB4313; test: MIC, reference strains of aerobic bacteria; format: cell-based
[28] = system: Streptococcus salivarius GTC215; test: MIC, reference strains of aerobic bacteria; format: cell-based
[29] = system: Providencia rettgeri ATCC 9250; test: MIC, reference strains of aerobic bacteria; format: cell-based; conditions: ATCC9250
[30] = system: Staphylococcus epidermidis KUB4871/methicillin-sensitive; test: MIC, reference strains of aerobic bacteria; format: cell-based
[31] = Enterobacterales with metallo-carbapenemases (74), cefiderocol 73 isolates, CLSI breakpoints, marked c: breakpoints for β-lactam alone, tigecycline: FDA breakpoints
[32] = CLSI breakpoints, marked c: breakpoints for β-lactam alone
[33] = fixed concentration (μg/mL) in label
[34] = fixed concentration (μg/mL) in label, read-out: MIC50
[35] = fixed concentration (μg/mL) in label, read-out: MIC90
[36] = CLSI breakpoints, marked c: breakpoints for β-lactam alone, tigecycline: FDA breakpoints
[37] = All Enterobacterales (207), cefiderocol 205 isolates, CLSI breakpoints, marked c: breakpoints for β-lactam alone, tigecycline: FDA breakpoints

Compound: CC(C)(O/N=C(\C(=O)N[C@@H]1C(=O)N2C(C(=O)[O-])=C(C[N+]3(CCNC(=O)c4ccc(O)c(O)c4Cl)CCCC3)CS[C@H]12)c1csc(N)n1)C(=O)O [FDC, cefiderocol]
- MIC [1]: 0.5 µg/mL (≈ 0.665 µM)
- MIC [2]: 4 µg/mL (≈ 5.32 µM)
- CLSI MIC interpretation I (intermediate) [3, 31]: 5.5%
- CLSI MIC interpretation R (resistant) [3, 31]: 1.4%
- CLSI MIC interpretation S (susceptible) [3, 31]: 93.2%
- MIC50 ([3]; Enterobacterales with metallo-carbapenemases (74), cefiderocol 73 isolates, fixed concentration (μg/mL) in label, read-out: MIC50): 1 µg/mL (≈ 1.33 µM)
- MIC90 ([3]; Enterobacterales with metallo-carbapenemases (74), cefiderocol 73 isolates, fixed concentration (μg/mL) in label): 4 µg/mL (≈ 5.32 µM)
- MIC90 ([3]; MBL-producing isolates, comparators): ≤ 4 µg/mL
- MIC [4]: 4 µg/mL (≈ 5.32 µM)
- CLSI MIC interpretation I (intermediate) (96 P. aeruginosa; [32]): 0%
- CLSI MIC interpretation R (resistant) (96 P. aeruginosa; [32]): 0%
- CLSI MIC interpretation S (susceptible) (96 P. aeruginosa; [32]): 100%
- MIC Range (96 P. aeruginosa; [33]): ≤0.06 to 4 µg/mL
- MIC50 (96 P. aeruginosa; [34]): 0.5 µg/mL (≈ 0.665 µM)
- MIC90 (96 P. aeruginosa; [35]): 2 µg/mL (≈ 2.66 µM)
- CLSI MIC interpretation I (intermediate) [5, 36]: 3.2%
- CLSI MIC interpretation R (resistant) [5, 36]: 0.8%
- CLSI MIC interpretation S (susceptible) [5, 36]: 96%
- MIC50 [5, 34]: 1 µg/mL (≈ 1.33 µM)
- MIC90 [5, 35]: 2 µg/mL (≈ 2.66 µM)
- MIC [6]: 16 µg/mL (≈ 21.3 µM)
- CLSI MIC interpretation I (intermediate) [7, 36]: 0%
- CLSI MIC interpretation R (resistant) [7, 36]: 0%
- CLSI MIC interpretation S (susceptible) [7, 36]: 100%
- MIC Range [7, 33]: ≤0.06 to 4 µg/mL
- MIC50 [7, 34]: 0.5 µg/mL (≈ 0.665 µM)
- MIC90 [7, 35]: 2 µg/mL (≈ 2.66 µM)
- MIC [8]: 8 µg/mL (≈ 10.6 µM)
- CLSI MIC interpretation I (intermediate) [9, 36]: 7.4%
- CLSI MIC interpretation R (resistant) [9, 36]: 1.9%
- CLSI MIC interpretation S (susceptible) [9, 36]: 90.7%
- MIC50 [9, 34]: 1 µg/mL (≈ 1.33 µM)
- MIC90 [9, 35]: 4 µg/mL (≈ 5.32 µM)
- CLSI MIC interpretation I (intermediate) [10, 37]: 2%
- CLSI MIC interpretation R (resistant) [10, 37]: 0.5%
- CLSI MIC interpretation S (susceptible) [10, 37]: 97.6%
- MIC50 ([10]; read-out: MIC50): 0.5 µg/mL (≈ 0.665 µM)
- MIC90 ([10]; read-out: MIC90): 2 µg/mL (≈ 2.66 µM)

Compound: N[C@@H](C(=O)N1CC(Oc2ccc3c(c2C(=O)O)OB(O)CC3)C1)c1c[nH]cn1 [KSP-1007, 7-({1-[(2R)-2-amino-2-(1H-imidazol-4-yl)acetyl]azetidin-3-yl}oxy)-2-hydroxy-3,4-dihydro-2H-1,2-benzoxaborinine-8-carboxylic acid]
- MIC [11]: > 128 µg/mL
- MIC [12]: > 128 µg/mL
- MIC [13]: > 128 µg/mL
- MIC [14]: > 128 µg/mL
- MIC [15]: 4 µg/mL (≈ 10.4 µM)
- MIC [16]: 4 µg/mL (≈ 10.4 µM)
- MIC [17]: > 128 µg/mL
- MIC [18]: 2 µg/mL (≈ 5.18 µM)
- human plasma protein binding rate [19]: about 75%
- MIC [20]: > 128 µg/mL
- MIC [21]: > 128 µg/mL
- MIC [22]: > 128 µg/mL
- MIC [23]: 4 µg/mL (≈ 10.4 µM)
- MIC [24]: 64 µg/mL (≈ 166 µM)
- MIC [25]: > 128 µg/mL
- MIC [26]: 2 µg/mL (≈ 5.18 µM)
- MIC [27]: 128 µg/mL (≈ 331 µM)
- MIC [28]: 0.25 µg/mL (≈ 0.647 µM)
- MIC [29]: > 128 µg/mL
- MIC [30]: 4 µg/mL (≈ 10.4 µM)
